Test results reported in PubChem BioAssay (NCI).
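Following 48 hours of exposure in 96-well plates, responses at five concentrations were used to interpolate endpoints linearly. At the GI50, growth is halved. At the TGI there is no net growth.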

Legend:
Experiment in all cases: NCI tumour cell line growth inhibition, 48 h
[1] = system: A498 renal
[2] = system: HCT-15 colon
[3] = system: NCI/ADR-RES ovarian
[4] = system: ACHN renal
[5] = system: HCT-116 colon
[6] = system: SK-MEL-5 melanoma
[7] = system: HOP-62 NSCLC
[8] = system: MCF7 breast
[9] = system: MOLT-4 leukemia
[10] = system: COLO 205 colon

## CCN(CC)CCCC(C)Nc1cnc(C(=O)Nc2cccc3ccc(OC)nc23)cn1 (stereo not given)
[1]
  GI50: 4.52 µM
  TGI: 18 µM
[2]
  GI50: 1.95 µM
  TGI: 4.31 µM
[3]
  GI50: 2.62 µM
  TGI: 7.95 µM
[4]
  GI50: 1.83 µM
  TGI: 3.48 µM
[5]
  GI50: 1.62 µM
  TGI: 3.44 µM
[6]
  GI50: 1.77 µM
  TGI: 3.21 µM
[7]
  GI50: 1.83 µM
  TGI: 3.71 µM
[8]
  GI50: 1.67 µM
  TGI: 3.41 µM
[9]
  GI50: 2.04 µM
  TGI: 4.67 µM
[10]
  GI50: 1.77 µM
  TGI: 3.46 µM

## Cn1cnc([N+](=O)[O-])c1[Se]c1nc(N)nc2c1ncn2C1OC(CO)C(O)C1O (stereo not given)
[1]
  TGI: > 100 µM
[2]
  TGI: > 100 µM
[3]
  TGI: > 100 µM
[4]
  TGI: > 100 µM
[5]
  TGI: > 100 µM
[6]
  TGI: > 100 µM
[7]
  TGI: > 100 µM
[8]
  TGI: > 100 µM
[9]
  TGI: > 100 µM
[10]
  TGI: > 100 µM

## C=C(C)C1CCC2(C(=O)O)CCC3(C)C(CCC4C5(C)CCC(OC(=O)NCc6ccccc6)C(C)(C)C5CCC43C)C12 (stereo not given)
[1]
  GI50: 2.57 µM
  TGI: > 100 µM
[2]
  GI50: 3.74 µM
  TGI: > 100 µM
[3]
  GI50: 3.82 µM
  TGI: > 100 µM
[4]
  GI50: 3.29 µM
  TGI: > 100 µM
[5]
  GI50: 2.24 µM
  TGI: 19.3 µM
[6]
  GI50: 4.82 µM
  TGI: > 100 µM
[7]
  GI50: 3.87 µM
  TGI: > 100 µM
[8]
  GI50: 4.08 µM
  TGI: > 100 µM
[9]
  GI50: 2.79 µM
  TGI: > 100 µM
[10]
  GI50: 1.82 µM
  TGI: 5.44 µM

## O=C1/C(=C/c2ccc(O)cc2)CSc2ccc(Cl)cc21
[1]
  GI50: 15 µM
  TGI: 28.4 µM
[2]
  GI50: 8.31 µM
  TGI: 21.9 µM
[3]
  GI50: 18.7 µM
  TGI: > 100 µM
[4]
  GI50: 11.9 µM
  TGI: 24.3 µM
[5]
  GI50: 7.08 µM
  TGI: > 100 µM
[6]
  GI50: 12.3 µM
  TGI: 24.7 µM
[7]
  GI50: 14.2 µM
  TGI: 45 µM
[8]
  GI50: 0.651 µM
  TGI: 11 µM
[9]
  GI50: 4.09 µM
  TGI: > 100 µM
[10]
  GI50: 15.6 µM
  TGI: 29 µM

## CCc1oc2ccccc2c1C(=O)c1cc(I)c(O)c(I)c1
[1]
  GI50: 3.84 µM
  TGI: 17 µM
[2]
  GI50: 2.26 µM
  TGI: 14.1 µM
[3]
  GI50: 1.49 µM
  TGI: 5.25 µM
[4]
  GI50: 4.87 µM
  TGI: 18.2 µM
[5]
  GI50: 2.91 µM
  TGI: 12 µM
[6]
  GI50: 3.2 µM
  TGI: 13.9 µM
[7]
  GI50: 5.85 µM
  TGI: 20.3 µM
[8]
  GI50: 4.02 µM
  TGI: 14.7 µM
[9]
  GI50: 3.33 µM
  TGI: 26.6 µM
[10]
  GI50: 5.05 µM
  TGI: 18.7 µM

## C/C(=N\Nc1ccc(Cl)cn1)c1ccccn1
[1]
  GI50: 0.174 µM
  TGI: 1.05 µM
[2]
  GI50: 0.0658 µM
  TGI: > 50.4 µM
[3]
  GI50: 0.037 µM
  TGI: > 31.6 µM
[4]
  GI50: 0.042 µM
  TGI: 27.1 µM
[5]
  GI50: 0.0201 µM
  TGI: > 33.8 µM
[6]
  GI50: 0.343 µM
  TGI: 5.48 µM
[7]
  GI50: 0.167 µM
  TGI: > 42.1 µM
[8]
  GI50: 0.0989 µM
  TGI: > 100 µM
[9]
  GI50: 0.026 µM
  TGI: > 42 µM
[10]
  GI50: 0.0227 µM
  TGI: 36.7 µM

## C/C=C(\C)CC/C=C/CO[Si](C)(C)C(C)(C)C
[1]
  TGI: > 100 µM
[2]
  TGI: > 100 µM
[3]
  TGI: > 100 µM
[4]
  TGI: > 100 µM
[5]
  TGI: > 100 µM
[6]
  TGI: > 100 µM
[7]
  TGI: > 100 µM
[8]
  TGI: > 100 µM
[9]
  TGI: 81.3 µM
[10]
  TGI: > 100 µM

## CC[C@H](C)[C@H]1O[C@]2(C=C[C@@H]1C)C[C@@H]1C[C@@H](C/C=C(\C)[C@@H](O[C@H]3C[C@H](OC)[C@@H](O[C@H]4C[C@H](OC)[C@@H](NC)[C@H](C)O4)[C@H](C)O3)[C@@H](C)/C=C/C=C3\CO[C@@H]4[C@H](O)C(C)=C[C@@H](C(=O)O1)[C@]34O)O2
[1]
  GI50: 2.68 µM
  TGI: 11.6 µM
[2]
  GI50: 1.78 µM
  TGI: 4.46 µM
[3]
  GI50: 3.05 µM
  TGI: 11.3 µM
[4]
  GI50: 2.73 µM
  TGI: 10.8 µM
[5]
  GI50: 2 µM
  TGI: 5.12 µM
[6]
  GI50: 1.8 µM
  TGI: 3.2 µM
[7]
  GI50: 1.75 µM
  TGI: 4 µM
[8]
  GI50: 1.85 µM
  TGI: 4.34 µM
[9]
  GI50: 1.81 µM
  TGI: 4.48 µM
[10]
  GI50: 1.77 µM
  TGI: 3.39 µM

## Cc1ccc(C(=O)Nc2ccc(CN3CCN(C)CC3)c(C(F)(F)F)c2)cc1C#Cc1cnc(N)c2ccccc12
[1]
  GI50: 0.31 µM
  TGI: 1.3 µM
[2]
  GI50: 0.142 µM
  TGI: 0.849 µM
[3]
  GI50: 0.594 µM
  TGI: 1.82 µM
[4]
  GI50: 0.133 µM
  TGI: 0.631 µM
[5]
  GI50: 0.336 µM
  TGI: 1.01 µM
[6]
  GI50: 0.835 µM
  TGI: 1.62 µM
[7]
  GI50: 0.849 µM
  TGI: 2.13 µM
[8]
  GI50: 0.799 µM
  TGI: 1.61 µM
[9]
  GI50: 0.224 µM
  TGI: 1.28 µM
[10]
  GI50: 0.655 µM
  TGI: 1.62 µM
